From US8188003B2, “Method of inducing virus tolerance of plants” (BASF Aktiengesellschaft, priority 2005, dated 2012)

Assays:
[1] = tested on: TMV; test: Use example 3: leaf halves infiltrated, TMV infection 1 day after treatment, lesion area versus control; format: in vivo, tobacco plants (cultivar Xanthi-nc); settings: 1 mM in 1% aqueous ethanol, evaluated after further 5 days
Procedure: (§1) Leaf halves of approx. 5-weeks-old tobacco plants (cultivar Xanthi-nc) were infiltrated with 1 mM active ingredient solution in 1% aqueous ethanol; the leaf halves of the controls were infiltrated with 1% aqueous ethanol.
(§2) Infection with TMV was carried our 1 day after treatment; the plants were evaluated after further 5 days. The data shown are the averages of the leaf areas which had died owing to viral attack (lesions) at the infection site on leaf halves treated with active ingredient or untreated leaf halves (controls):
(§3) Area of the lesions in comparison with the control: […]

[2] = tested on: TMV; test: Use example 5: spraying the leaves with active ingredient solutions, TMV infection 5 days after treatment, lesion area versus control; format: in vivo, tobacco plants (cultivar Xanthi-nc); settings: 2 mM with universal wetter 1:1 (w/w), sprayed, evaluated after further 4 days
Procedure: In each case 2 mM active ingredient were dissolved in water with the aid of a universal wetter in the ratio 1:1 (w/w) and sprayed onto the leaf halves of 5-week-old tobacco plants (cultivar Xanthi-nc) (leaf halves of the controls were sprayed with dissolved wetter only).
as §2, with “out 5 days” for “our 1 day”, “the treatment, and” for “treatment;”, “4” for “5”
as §3

[3] = tested on: TMV; test: Use example 4: leaf halves infiltrated, TMV infection 2 days after treatment, lesion area versus control; format: in vivo, tobacco plants (cultivar Xanthi-nc); settings: 1 mM in 1% aqueous ethanol, evaluated after further 5 days
Procedure: as §1
The procedure of use example 3 was followed, but infection was carried out 2 days after the treatment and the plants were evaluated after further 5 days.
as §3

[4] = tested on: tobacco mosaic virus (TMV, strain U1); test: Use example 2: one leaf half infiltrated with active ingredient solution, TMV infection, lesion diameter; format: in vivo, tobacco plants (Nicotinia tabacum cv. Xanthi-nc); settings: after 5 days
Procedure: (§4) For the experiments, tobacco plants (Nicotinia tabacum cv. Xanthi-nc) were grown at 25° C., an atmospheric humidity of 59% and a daily photoperiod of 16 hours (150-200 μM quanta/s^−1/m^−2) for 4 to 5 weeks in potting compost (standard soil type ED 73). Some of the plants were fed once per week by adding a commercial house-plant fertilizer (10% total nitrogen, 9% phosphate, 7% potash) to the irrigation water at the recommended rate.
(§5) The formulated active ingredient used took the form of water-dispersible granules with an active ingredient content of 20%. The concentrations used in the experiments (0.01-10 mM) are based on the active ingredient content. To prevent distribution of the active ingredient in the entire plant, the stalks of plants where a leaf had been infiltrated were removed above the treated leaf, using a sterile surgical blade.
(§6) After the application of the active ingredient, and also after infection with the virus at a later time, the plants were left to stand in the growth cabinet.
(§7) The various pretreated tobacco plants were infected with tobacco mosaic virus (TMV, strain U1). […] Five to 7 days post-infection, the diameter of 10 to 20 lesions on the leaves was determined. […]
After 5 days, the diameter of the lesions on the leaves caused by TMV was determined in millimeters [mm].

[5] = tested on: tobacco mosaic virus (TMV, strain U1); test: Use example 1: active ingredient solution injected into tobacco leaves, TMV infection, lesion diameter; format: in vivo, tobacco plants (Nicotinia tabacum cv. Xanthi-nc); settings: injected into leaf, infection 1 day after pretreatment, after 7 days, water control 3.55 mm
Procedure: as §4, §5, §6, §7
After 7 days, the diameter of the lesions on the leaves caused by TMV was determined in millimeters [mm].

[6] = tested on: TMV; test: Use example 6: plant growth and tolerance to viral infection of TMV-inoculated tomato plants after spray treatment; format: in vivo, Tomato plants (cultivar Gaucho)
Procedure: The experiments were performed in greenhouse of under appropriate growing conditions for tomatoes. Tomato plants (cultivar Gaucho) were grown in pots until development of the first two true leaves. Then the plantlets were sprayed with different concentrations of formulated Pyraclostrobin (compound I-5; commercial fungicide Cabrio Top® of BASF Aktiengesellschaft). These treatments were done either 120 hours before or following inoculation of the plantlets with TMV, representing protective and curative situation. The treatments were run with 5 replicates, each containing 3 plantlets. 30 days after last treatment the plants were analyzed for visual plant growth (altitude and dry mass) and chlorophyll content (photometric measurement of extracts). Also the virus titre was determined (ELISA).
Same letters indicate non significant differences (Tukey; P≦0.05).

## CNC(=O)/C(=N/OC)c1ccccc1COc1cc(C)ccc1C [II-3, dimoxystrobin]
[1]
  Area of the lesions in comparison with the control, Area in percent: 68.1%
[2]
  Area of the lesions in comparison with the control, Area in percent: 49.6%
[3]
  Area of the lesions in comparison with the control, Area In percent: 62.7%

## CO/C=C(/C(=O)OC)c1ccccc1Oc1cc(Oc2ccccc2C#N)ncn1 [VII-1, azoxystrobin]
[1]
  Area of the lesions in comparison with the control, Area in percent: 62.1%
[2]
  Area of the lesions in comparison with the control, Area in percent: 68.3%
[3]
  Area of the lesions in comparison with the control, Area In percent: 70.4%

## CNC(=O)/C(=N/OC)c1ccccc1CO/N=C(C)/C(=N/OC)C(/C)=N/OC [Compound V-16, orysastrobin]
[1]
  Area of the lesions in comparison with the control, Area in percent: 63.8%

## pyraclostrobin [Compound I-5]
[4]; 0.5 mM, water control plants 3.2 mm
  diameter of the lesions on the leaves caused by TMV (average), treated leaf zones: 2.75 mm
[4]; 1 mM, water control plants 3.35 mm
  diameter of the lesions on the leaves caused by TMV (average), treated leaf zones: 2.85 mm
[1]
  Area of the lesions in comparison with the control, Area in percent: 53.0%
[5]; 1 mM
  diameter of the lesions on the leaves caused by TMV (average): 2.35 mm
[5]; 2.5 mM
  diameter of the lesions on the leaves caused by TMV (average): 1.8 mm
[6]; Curative treatment
  effect compared with untreated plants: no advantage compared with untreated plants
[6]; protective treatment
  effect on growth inhibition and loss of leaf chlorophyll caused by TMV infection: can prevent growth inhibition and loss of leaf chlorophyll caused by TMV infection
